The values that follow come from US20250082717A1, “COMPOSITIONS FOR TREATING KIDNEY DISEASE” (RHYTHM PHARMACEUTICALS, INC., priority 2018, published 2025).

For data set [1] the following is noted: clinical trials (Chen et al. J. Clin. Endocrinol. Metab. 2015); cited from earlier work.
Data set [2] has as its system BBS10^−/− mice on high-fat/high-glucose diet. Briefly: Escalating setmelanotide dosing study over 10 days, renal IL-23 mRNA expression by real-time quantitative PCR. Type of data set: in vivo. The following applies: obese BBS10^−/− mice on HF/HG diet; escalating doses 0.05-1.25 mg/kg over 10 days; relative to Gapdh. As for the experimental part:
(§1) In order to assess the effect of setmelanotide on plasma leptin levels disproportionate from body weight loss, BBS10^−/− and wild type mice were fed a high fat/high glucose diet from weaning and body weight assessed on a weekly basis. At four months of age, mice were transferred to metabolic cages and acclimated for 3 days. An escalating setmelanotide dosing study over 10-days was conducted in accordance with regimen shown below in Table 1:
(§2) At the completion of the study, mice were sacrificed and blood and kidney collected for analysis of circulating leptin concentration and IL-23 mRNA expression, respectively. Plasma leptin concentrations were determined using a leptin ELISA kit (Catalog: #: EZML-82K, Millipore, Billerica, Massachusetts, USA). For analysis of renal IL-23 expression messenger RNA was extracted from tissue samples using TRIzol® reagent (#15596-018, Life Technologies, USA). […] The real-time quantitative PCR reaction was performed in a C1000™ thermocycler (CFX96, Real-Time System, BioRad, USA) using SYBR® Green. […] Results were analyzed with the CFX Manager™ software (BioRad, USA). Gene expression quantification was assessed by reporting measured levels relative to Gapdh expression in each separate sample.

Data set [3] has the same test system. The data set can be described thus: Escalating setmelanotide dosing study over 10 days, plasma leptin by ELISA. The class given is in vivo. The following applies: obese BBS10^−/− mice on HF/HG diet; escalating doses 0.05-1.25 mg/kg over 10 days; disproportionate from body weight loss. As for the experimental part:
as §1, §2
(In an ELISA, binding on a coated surface is turned into a signal by an enzyme label.)

For a further data set, the system named is BBS10^−/− mice. Briefly: Setmelanotide daily for one week, body weight and plasma and urine biomarker levels. Type of data set: in vivo. As for the experimental part: In order to assess the effect of setmelanotide on body weight and the levels of certain biomarkers, BBS10^−/− mice were administered setmelanotide (1.25 mg/kg) daily for one week. […] However, setmelanotide treatment did result in an increase in urine calcium levels as well as an increase in urine creatine levels (FIG. 4).
Additional studies in these mice entailed measurement of blood plasma levels of the biomarkers leptin and adiponectin after treatment with setmelanotide (1.25 mg/kg). […] Further, the leptin: adiponectin ration was decreased in setmelanotide treated mice.

“Also recorded” adds a separate entry of the source.

As to `CC(=O)N[C@@H](CCCNC(=N)N)C(=O)N[C@H]1CSSC[C@@H](C(N)=O)NC(=O)[C@H](Cc2c[nH]c3ccccc23)NC(=O)[C@H](CCCNC(=N)N)NC(=O)[C@@H](Cc2ccccc2)NC(=O)[C@H](Cc2cnc[nH]2)NC(=O)[C@@H](C)NC1=O` [setmelanotide, Ac-Arg-c (Cys-D-Ala-His-D-Phe-Arg-Trp-Cys)-NH2], the “effect on blood pressure” value in data set [1] is reported as “has not been shown to adversely affect blood pressure”. In addition, the “renal IL-23 mRNA expression” value in data set [2] was “lowers; also recorded: normalization”. The plasma leptin levels result in data set [3] was “lowers; also recorded: decrease”. For the same compound, in the data set on BBS10^−/− mice (1.25 mg/kg daily for one week), the body weight result is “Lowered” and the urine calcium levels result is reported as “increase”. Also, in the data set on BBS10^−/− mice (1.25 mg/kg daily for one week, FIG. 4), the urine creatine levels entry is given as “increase”. Further, the “blood plasma levels of leptin” value in the data set on BBS10^−/− mice (1.25 mg/kg, effect not seen in vehicle and pair-fed mice, FIG. 5A) is listed as “decreasing levels”. In addition, in the data set on BBS10^−/− mice (1.25 mg/kg, effect not seen in vehicle and pair-fed mice, FIG. 5B), the “blood plasma levels of adiponectin” value was “increased levels”. In addition, the “leptin: adiponectin ration” value with BBS10^−/− mice (1.25 mg/kg, effect not seen in vehicle and pair-fed mice, FIG. 5C) is reported as “decreased”.
